The results in this text go back to a melting point compilation (Tetko et al.; mined from patent text by program, amines drawn as free bases though some values may be those of a salt).

By melting point is commonly meant the temperature, or range, at which the solid turns liquid.

Molecules are shown by their SMILES.

As to `O=S(=O)(Nc1cc(Br)nc(Br)c1)c1cccc(Cl)c1`, the melting point was 187 to 189 °C.
For the compound `COCCNC(=O)c1ccc2c(c1)C(=NNc1ccc(S(N)(=O)=O)cc1)C(=O)N2`, the melting point was over 230 °C.
In turn, `CN(C)C(=O)COc1ccc(-c2ccc(C3COC(c4c(F)cccc4F)=N3)cc2)cc1` (stereo not given) had a melting point of 78 to 80 °C.
In the case of `CC(C)(C)c1cc(C=C(C#N)c2ccccn2)cc(C(C)(C)C)c1`, the melting point is 90 to 93 °C.
`Fc1ccc2c(c1)CC(CN1CCC(c3noc4cc(F)ccc34)CC1)O2` (racemic): the melting point was in the range of 129 to 130 °C.
Regarding `CCC(C)N1C(=O)c2ccc(C)nc2C1=O` (stereo not given), the melting point lay within 105 to 106 °C.
`Cc1cc(OCc2ccc(-c3ccc(F)c(C(F)(F)F)c3)nc2C)ccc1OC(C)(C)C(=O)O` displayed a melting point of 141 to 143 °C.
Compound `CCOC(=O)CCCCCCC(=O)c1ccc2cc(OC)ccc2c1` returned a melting point of 77 to 78 °C.
Regarding `O=C1CCOc2ccc(OCc3ccccc3)cc21`, the melting point is 107 to 108 °C.
For `CC1(C)OCc2cc(Cl)cc(C(=O)c3cn(C(c4ccccc4)(c4ccccc4)c4ccccc4)cn3)c2O1`, the melting point is 200 to 205 °C.
`CC(=O)NC1CCC(=O)N2CCCC(C(=O)NC(CC(=O)OC(C)(C)C)C(=O)COC(=O)c3c(Cl)cccc3Cl)N2C1=O` (stereo not given) had a melting point of 80 to 125 °C.
As to `N=C(NO)c1ccccc1-n1cnc2cnc3ccc(-c4ccccc4)cc3c21`, the melting point lay within 249 to 251 °C.
`CC1(C)CC(=C(c2ccc(F)cc2)c2ccc(OCC#N)cc2)CC(C)(C)C1`: the melting point was 100 to 101 °C.
To `O=C(Nc1cccc(Br)c1)Oc1ccc2c(c1)CCCN2Cc1ccccc1` belongs 117 °C; to `COc1ccc(N2Cc3cnc(Nc4ccccc4)nc3N([C@@H](C)CO)C2=O)cc1`, 140 to 147 °C; to `CCCS(=O)(=O)NCc1ccc2ccn(C3CCN(CCc4ccc(F)cc4)CC3)c2c1`, 80 to 81 °C.
In the case of `O=c1nc(Cl)cnn1-c1cc(Cl)cc(Cl)c1` it was 148 to 149 °C; in that of `N#Cc1ccn2ccccc12`, 53 to 54 °C.
To `CCC1OC(=O)Nc2ccc(-c3cccc(Cl)c3)cc21` (stereo not given) belongs 146 to 148 °C; to `O=C(Cc1ccc(C(F)(F)F)cc1)c1ccc(F)cc1`, 93 to 95 °C.
The compound `N[C@@H](Cc1ccc(OCc2ccccc2)cc1)C(=O)NCCN1CCCCC1` gave a melting point of 58 to 61 °C.
As to `O=CN1CCC(c2nn(-c3ccc(C(F)(F)F)cc3)c3cc(F)ccc23)CC1`, the melting point was in the range of 142 to 144 °C.
In the case of `COc1ccc(-c2cccc(C=CC(=O)Nc3ccc(CN4CCCCC4)cc3)c2)cc1`, the melting point lay in the range of 150 to 151 °C.
`N#Cc1c(N)oc2c1c(Cc1ccccc1)c(O)c1ccccc12` returned a melting point of 224 to 225 °C.
For the compound `C=CCC(=O)S/C=C\C(=O)NCCCCCCCC`, the melting point lay in the range of 60 to 62 °C.
Compound `O=C(COc1cccc2cccnc12)c1ccccc1` had a melting point of 124 to 125 °C.
As for `CC1(C)CCCC(=Cc2ccc(Cl)cc2)C1=O`, the melting point turned out to be 92 °C.
For `COC(=O)c1oc2ccc(Cl)cc2c1-c1ccccc1C`, the melting point lay within 212 to 214 °C.
The compound `CCC(O)CNC(=O)c1nn(C2CCCCO2)cc1NC(=O)c1ccccn1` (stereo not given) gave a melting point of 160 to 161 °C.
Compound `CC[C@@H](NC(=O)N1CC(=O)NCC(Cc2cc(Cl)ccc2OC)C1=O)C(=O)Nc1ccc(C)c(C(=O)O)c1` (stereo not given in full) had a melting point of 132 to 134 °C.
As to `O=c1c2ccc(Cl)cc2[nH]c2c(O)nn(C3CCCc4sccc43)c(=O)c12` (racemic), the melting point is over 300 °C.
`CC(=O)Cc1cccc(S(N)(=O)=O)c1` came in with a melting point of 155 to 157 °C.
In the case of `O=C1C2=C(NC(=O)C3(N2)SCCS3)c2ccccc21` it was over 300 °C; in that of `Cc1c(C(=O)c2cccc(O)c2)sc(N)c1C(=O)OC(C)(C)C`, 169 to 172 °C; in that of `CCCCCCCCCCCCCCCCCC(=O)Nc1cccc(C(=O)N(CC(=O)O)CC(=O)O)c1`, 132 to 142 °C.
Consider `CCC(CC)Nc1cc(C(=O)O)ccc1N1CCCC1=O`, for which the melting point fell in the range of 178 to 180 °C.
In the case of `Fc1cccc(Nc2nc(OCC3CCCCC3)c3[nH]cnc3n2)c1` it was 224 to 227 °C.
`Cc1oc(-c2ccccc2)nc1CCOc1ccc(CC2SC(=O)NC2=O)cc1` (stereo not given) yielded a melting point of 113 to 114 °C.
`CCC1c2cc3c(cc2C(C=Cc2ccc(NC(C)=O)cc2)=NN(C(C)=O)C1C)OCO3` (stereo not given) had a melting point of 137 to 140 °C.
To `Nc1c(F)cc(-c2ccccc2)cc1Cl` belongs 105 to 107 °C; to `CC1(C)CCC(C)(C)c2cc(NC(=O)c3ccc(C=CC(=O)O)cc3)ccc21`, 226 to 227 °C; to `Brc1ccc2c(c1)N=C(N1CCOCC1)c1cccc3c1N2CC3`, 216 to 218 °C.
To `CC(O)Cn1ccc2ccc(F)c(Cl)c21` (racemic) belongs 85 to 87 °C; to `CCCCCN(CCC12CC3CC(CC(C3)C1)C2)C(=O)NCc1ccncc1`, 96.5 to 108 °C; to `Cc1ccc(-c2c(-c3ccc(S(C)(=O)=O)cc3)[nH]c3ccccc23)cc1C`, 206 to 207 °C.
On to `C=Cc1cnc(NC(=O)C(C)C)nc1`, for which the melting point lay in the range of 110 to 112 °C.
`N#C[C@@H]1C[C@@H]2C[C@@H]2N1C(=O)[C@@H](NC(=O)OCc1ccccc1)C12CC3CC(CC(O)(C3)C1)C2` yielded a melting point of 105 to 106 °C.
With `O=C1c2ccccc2C(=S)N1C1CCC(=S)NC1=S` (stereo not given), the melting point came out at 244 °C.
On to `C=CCOc1ccccc1/C=C\C(=O)O`, for which the melting point is 80 to 82 °C.
In the case of `CC(=O)Oc1c(C)cc(C2C(=O)Oc3c2cc(C(C)(C)C)cc3C(C)(C)C)cc1C` (stereo not given) it was 165 to 166 °C; in that of `CCOP(=O)(/C=C/c1cn(-c2ccccc2)nc1NC)OCC`, 132 to 133 °C.
With `Clc1ccc(/C=C/c2ccc[nH]2)cc1`, the melting point came out at 172 °C.
In the case of `Cc1oc(-c2ccccc2)nc1CN(C)C(=O)c1ccc(C=C2SC(=O)NC2=O)cc1` it was 95 to 98 °C.
As for `Cc1cn2cccc(OCc3ccc(F)cc3)c2n1`, the melting point was 137 °C.
In the case of `CCc1nc2c(N)nc3ccc(O)cc3c2n1CCCCNS(C)(=O)=O`, the melting point is 128 to 130 °C.
In the case of `CN1CC(O)N(c2nnc(SCc3cccs3)s2)C1=O` (stereo not given) it was 129 to 132 °C; in that of `CC[C@H](C)[C@H](N)C(=O)NC(C)COc1ccc(C#N)cc1` (stereo not given in full), 64 to 67 °C; in that of `CC(C)Sc1sc(-c2nnn[nH]2)c2c1C(=O)CC(C)(C)C2`, 228 to 230 °C.
`CCCCCCCN(CCCCCSc1nc(-c2ccc(O)cc2)c(-c2ccc(O)cc2)[nH]1)C(=O)Nc1ccc(F)cc1F` displayed a melting point of 110 to 112 °C.
Consider `N#Cc1cc(C2=Nc3ccc(-c4ccc(F)cc4F)cc3NC(=O)C2)ccn1`, for which the melting point was in the range of 250 to 253 °C.
In the case of `CC(=O)SCCC(=O)NC(Cc1cn(C=O)c2ccccc12)C(=O)O` (racemic) it was 130 to 133 °C.
With `CC(Oc1ccc(-c2ccc(S(N)(=O)=O)cc2)cc1)C(O)CCc1cccnc1` (stereo not given), the melting point lay within 222 to 223 °C.
Regarding `O=C(O)COc1ccc2c(-c3ccccc3F)noc2c1I`, the melting point lay within 178 to 180 °C.
`COc1ccc(C2SCc3c(sc(N)c3C(=O)c3ccc(Cl)cc3)S2)cc1` (stereo not given): the melting point lay within 158 to 160 °C.
Consider `O=C(O)CN(C(=O)CCCCl)c1csc2ccccc12`, for which the melting point lay in the range of 167 to 168 °C.
Regarding `Cn1ncc(/C=C/C(=O)O)c1-c1ccoc1`, the melting point is 218 to 219 °C.
In turn, `CN(CCOCC(=O)OC(C)(C)C)C(=O)c1c(-c2ccc(C(C)(C)C)cc2)n(C)n(-c2ccc(C#N)cc2)c1=O` displayed a melting point of 218 to 222 °C.
With `CC(C)Cn1c(CNC(=O)OC(C)(C)C)c(-c2ccccc2)c2cc(CCC(=O)O)ccc2c1=O`, the melting point is 182 to 183 °C.
Compound `FC(F)Oc1ccc(C2=NNCC2c2ccccc2)cc1` (stereo not given) showed a melting point of 65 to 75 °C.
To `C#CCN1CCN(C(C)=O)CC1` belongs 63 to 65 °C.
With `N#Cc1c(N)sc(C=O)c1Sc1ccccc1`, the melting point was 230 °C.
Consider `O=C(Nc1ccc(-c2nc(-c3ccco3)no2)c(Cl)c1)Oc1ccccc1`, for which the melting point is 184 to 186 °C.
To `Cc1nn(C2CCCC2C)c(N)c1C(N)=O` (stereo not given) belongs 124 to 126 °C.
As for `O=c1[nH]c2cc(F)c(F)cc2cc1P(=O)(O)O`, the melting point is 245 to 252 °C.
In turn, `CCc1[nH]n(C2CCCC2)c2nc(-c3cccc(OCC(=O)N4CCOCC4)c3)nc(=O)c1-2` had a melting point of 212 to 213 °C.
Regarding `COc1cccc(C(N)=O)c1N`, the melting point fell in the range of 140 to 141 °C.
`Cc1sc2cc(CCO)ccc2c1C(=O)O` gave a melting point of 166 to 169 °C.
`Nc1ccc(C(=O)c2ccc(N)cc2)cc1` displayed a melting point of 241 °C.
`Nc1nc2c(s1)CCN(CC=Cc1ccccc1Br)CC2` registered a melting point of 103 to 106 °C.
In the case of `Cc1ncn(C)c1[N+](=O)[O-]` it was 45 °C; in that of `COc1ccc(C(=O)N[C@@H](Cc2c[nH]c3ccccc23)C(=O)O)cc1`, 63 to 65 °C; in that of `C=CCC(Cc1ccc([N+](=O)[O-])cc1)NC(=O)OCc1ccccc1` (stereo not given), 94 to 95 °C.
Take `CCn1ncc(C(=O)c2ccc(S(C)(=O)=O)c(CO)c2Cl)c1O`: the melting point lay in the range of 70 to 76 °C.
In turn, `CCCC(CC(CC)SC)CC1OC(n2cnc3c(N)ncnc32)C(O)C1O` (stereo not given) had a melting point of 78 to 80 °C.
Turning to `O=C1COc2cc(C(O)(C(F)(F)F)C(F)(F)F)ccc2N1`, the melting point was 224 to 225 °C.
In the case of `N#Cc1ccc(COc2cc(O)cc(C(=O)Nc3ccc(C#N)cc3)c2)cc1` it was 199 to 201 °C; in that of `NC(=O)c1cc(F)cc(-c2cccc3cc(Cc4cccc(C(F)(F)F)c4)sc23)c1`, 165 to 166 °C.
For the compound `COc1ccccc1-c1csc(Nc2ccc(C)cn2)n1`, the melting point lay in the range of 228 to 230 °C.
The compound `CCC(=O)c1ccc(Oc2ccc(-c3scc(-c4ccccc4Cl)c3CC(=O)N=C(N)N)cc2)cc1` had a melting point of 123 to 124 °C.
The compound `CC(=O)OC1CSC(Oc2cc(F)ccc2-c2cccnc2)C(OC(C)=O)C1OC(C)=O` (stereo not given) displayed a melting point of 66 °C.
